According to US7009052B2, “Sulfonamide derivatives” (Warner Lambert Company LLC, priority 2003, dated 2006):

Target: T1, androgen receptor (Homo sapiens, UniProt P10275)
T1 sequence (P10275 1-920 Q868H): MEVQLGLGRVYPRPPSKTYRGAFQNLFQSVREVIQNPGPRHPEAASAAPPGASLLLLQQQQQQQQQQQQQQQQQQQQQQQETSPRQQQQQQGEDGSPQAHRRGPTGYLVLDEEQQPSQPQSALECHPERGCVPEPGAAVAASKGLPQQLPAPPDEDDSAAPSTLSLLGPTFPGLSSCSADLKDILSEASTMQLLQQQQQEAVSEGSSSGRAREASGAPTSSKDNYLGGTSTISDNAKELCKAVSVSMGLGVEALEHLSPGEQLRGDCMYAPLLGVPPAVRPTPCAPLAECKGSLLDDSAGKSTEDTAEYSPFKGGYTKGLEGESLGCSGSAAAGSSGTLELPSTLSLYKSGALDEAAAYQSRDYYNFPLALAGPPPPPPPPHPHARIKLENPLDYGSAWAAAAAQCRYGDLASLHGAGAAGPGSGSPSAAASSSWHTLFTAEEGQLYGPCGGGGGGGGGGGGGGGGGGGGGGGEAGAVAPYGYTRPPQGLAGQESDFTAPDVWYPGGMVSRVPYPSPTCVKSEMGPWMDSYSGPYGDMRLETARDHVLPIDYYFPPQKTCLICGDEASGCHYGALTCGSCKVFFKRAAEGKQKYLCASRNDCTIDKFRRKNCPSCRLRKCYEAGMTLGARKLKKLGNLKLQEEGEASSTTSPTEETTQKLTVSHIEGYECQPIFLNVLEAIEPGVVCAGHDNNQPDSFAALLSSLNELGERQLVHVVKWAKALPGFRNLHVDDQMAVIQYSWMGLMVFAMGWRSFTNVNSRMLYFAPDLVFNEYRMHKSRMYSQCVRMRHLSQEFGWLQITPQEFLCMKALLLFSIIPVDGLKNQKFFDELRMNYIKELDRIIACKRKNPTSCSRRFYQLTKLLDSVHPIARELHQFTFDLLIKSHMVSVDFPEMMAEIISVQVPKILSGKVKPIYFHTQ
Assay: AR Antagonist Cell Assay (MMTV-luciferase reporter, DHT-induced)
Type: cell-based
Conditions: MDA-MB453-MMTV clone 54-19 cells, 100 pM DHT, 17 hr
In short: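 Stably transfected MDA-MB453 cells carrying an ARE-containing MMTV promoter–firefly luciferase reporter, pretreated 30 min with compound at 10 uM or 1 uM in 1% charcoal-treated serum medium. Then stimulated with 100 pM DHT for 17 hr at 37° C. and luminescence read; expressed as % inhibition of DHT-induced signal.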

Structure (SMILES) | IC50 [µM]
CN1CCCC1CCNS(=O)(=O)c1ccc2[nH]c(=O)cc(C(F)(F)F)c2c1 (stereo not drawn) [Example 134, 2-Oxo-4-trifluoromethyl-1,2-dihydroquinoline-6-sulfonic acid[2-(1-methylpyrrolidin-2-yl)ethyl]amide] | > 10
CCN(Cc1ccccc1)S(=O)(=O)c1ccc2[nH]c(=O)cc(C(F)(F)F)c2c1 [Example 79, 2-Oxo-4-trifluoromethyl-1,2-dihydroquinoline-6-suifonic acidbenzylethylamide] | 0.39
O=c1cc(C(F)(F)F)c2cc(S(=O)(=O)Nc3cccc(OC(F)(F)F)c3)ccc2[nH]1 [Example 112, 2-Oxo-4-trifluoromethyl-1,2-dihydroquinoline-6-sulfonic acid(3-trifluoromethoxyphenyl)amide] | 0.12
CCOC(=O)Cc1ccc(NS(=O)(=O)c2ccc3c(c2)c(C(F)(F)F)cc(=O)n3C)cc1 [Example 42, [4-(1-Methyl-2-oxo-4-trifluoromethyl-1,2-dihydroquinoline-6-sulfonylamino)phenyl]aceticacid ethyl ester] | > 10
O=c1cc(C(F)(F)F)c2cc(S(=O)(=O)Nc3ccc4c(c3)CCC4)ccc2[nH]1 [Example 96, 2-Oxo-4-trifluoromethyl-1,2-dihydroquinoline-6-sulfonic acidindan-5-ylamide] | 0.14
Cn1c(=O)cc(C(F)(F)F)c2cc(S(=O)(=O)Nc3ccc4c(c3)CCC4)ccc21 [Example 22, 1-Methyl-2-oxo-4-trifluoromethyl-1,2-dihydroquinoline-6-sulfonicacid indan-5-ylamide] | 4.47
Cn1c(=O)cc(C(F)(F)F)c2cc(S(=O)(=O)Nc3cccc4cccnc34)ccc21 [Example 34, 1-Methyl-2-oxo-4-trifluoromethyl-1,2-dihydroquinoline-6-sulfonicacid quinolin-8-ylamide] | > 10
Cc1ccc(NS(=O)(=O)c2ccc3c(c2)c(C(F)(F)F)cc(=O)n3C)cc1 [Example 14, 1-Methyl-2-oxo-4-trifluoromethyl-1,2-dihydroquinoline-6-sulfonicacid p-tolylamide] | 1.03
Cc1cc2c(NS(=O)(=O)c3ccc4[nH]c(=O)cc(C(F)(F)F)c4c3)cccc2nn1 [Example 108, 2-Oxo-4-trifluoromethyl-1,2-dihydroquinoline-6-sulfonic acid(3-methylcinnolin-5-yl)amide] | > 10
CSc1ccccc1CNS(=O)(=O)c1ccc2oc(=O)cc(C(F)(F)F)c2c1 [Example 66, 2-Oxo-4-trifluoromethyl-2H-chromene-6-sulfonic acid 2-methylsulfanylbenzylamide] | > 10
Cn1c(=O)cc(C(F)(F)F)c2cc(S(=O)(=O)NCCc3ccccc3)ccc21 [Example 50, 1-Methyl-2-oxo-4-trifluoromethyl-1,2-dihydroquinoline-6-sulfonicacid phenethylamide] | 1.55
CC(O)c1cccc(NS(=O)(=O)c2ccc3[nH]c(=O)cc(C(F)(F)F)c3c2)c1 (stereo not drawn) [Example 100, 2-Oxo-4-trifluoromethyl-1,2-dihydroquinoline-6-sulfonic acid[3-(1-hydroxyethyl)phenyl]amide] | > 10
CC(C)N(C)S(=O)(=O)c1ccc2[nH]c(=O)cc(C(F)(F)F)c2c1 [Example 70, 2-Oxo-4-trifluoromethyl-1,2-dihydroquinoline-6-sulfonic acidisopropylmethylamide] | 0.55
CSc1n[nH]c(NS(=O)(=O)c2ccc3c(c2)c(C(F)(F)F)cc(=O)n3C)c1C#N [Example 35, 1-Methyl-2-oxo-4-trifluoromethyl-1,2-dihydroquinoline-6-sulfonicacid (4-cyano-5-methylsulfanyl-2H-pyrazol-3-yl)amide] | > 10
CCCCN(CC)S(=O)(=O)c1ccc2[nH]c(=O)cc(C(F)(F)F)c2c1 [Example 69, 2-Oxo-4-trifluoromethyl-1,2-dihydroquinoline-6-sulfonic acidbutylethylamide] | 0.2
O=c1cc(C(F)(F)F)c2cc(S(=O)(=O)NCCSCc3c(F)cccc3Cl)ccc2[nH]1 [Example 154, 2-Oxo-4-trifluoromethyl-1,2-dihydroquinoline-6-sulfonic acid[2-(2-chloro-6-fluorobenzylsulfanyl)ethyl]amide] | 2.18
Cn1c(=O)cc(C(F)(F)F)c2cc(S(=O)(=O)Nc3cnc4ccccc4c3)ccc21 [Example 33, 1-Methyl-2-oxo-4-trifluoromethyl-1,2-dihydroquinoline-6-sulfonicacid quinolin-3-ylamide] | > 10
O=c1cc(C(F)(F)F)c2cc(S(=O)(=O)N[C@H]3[C@@H]4CC[C@@H](C4)[C@H]3CO)ccc2[nH]1 [Example 148, 2-Oxo-4-trifluoromethyl-1,2-dihydroquinoline-6-sulfonic acid(3-hydroxy-methylbicyclo[2.2.1]hept-2-yl)] | 2.26
Cc1ccc(-c2ccccc2)cc1NS(=O)(=O)c1ccc2[nH]c(=O)cc(C(F)(F)F)c2c1 [Example 99, 2-Oxo-4-trifluoromethyl-1,2-dihydroquinoline-6-sulfonic acid(4-methylbiphenyl-3-yl)amide] | > 10
Cn1c(=O)cc(C(F)(F)F)c2cc(S(=O)(=O)Nc3cccc(OC(F)F)c3)ccc21 [Example 38, 1-Methyl-2-oxo-4-trifluoromethyl-1,2-dihydroquinoline-6-sulfonicacid (3-difluoromethoxy-phenyl)amide] | 5.63
O=c1cc(C(F)(F)F)c2cc(S(=O)(=O)NCCC3=CCCCC3)ccc2[nH]1 [Example 132, 2-Oxo-4-trifluoromethyl-1,2-dihydroquinoline-6-sulfonic acid(2-cyclohex-1-enylethyl)amide] | 0.21

Next, values leading:

IC50 [µM] | Structure (SMILES)
3.76 | Cc1ccc(F)cc1CNS(=O)(=O)c1ccc2[nH]c(=O)cc(C(F)(F)F)c2c1 [Example 137, 2-Oxo-4-trifluoromethyl-1,2-dihydroquinoline-6-sulfonic acid5-fluoro-2-methylbenzylamide]
> 10 | O=c1cc(C(F)(F)F)c2cc(S(=O)(=O)NCc3cccc(Cl)c3F)ccc2[nH]1 [Example 141, 2-Oxo-4-trifluoromethyl-1,2-dihydroquinoline-6-sulfonic acid3-chloro-2-fluorobenzylamide]
5.53 | Cc1cccc(Cl)c1CNS(=O)(=O)c1ccc2[nH]c(=O)cc(C(F)(F)F)c2c1 [Example 144, 2-Oxo-4-trifluoromethyl-1,2-dihydroquinoline-6-sulfonic acid2-chloro-6-methylbenzylamide]
4.69 | COCCNS(=O)(=O)c1ccc2[nH]c(=O)cc(C(F)(F)F)c2c1 [Example 119, 2-Oxo-4-trifluoromethyl-1,2-dihydroquinoline-6-sulfonic acid(2-methoxyethyl)amide]
4.61 | Cc1ccccc1CNS(=O)(=O)c1ccc2[nH]c(=O)cc(C(F)(F)F)c2c1 [Example 124, 2-Oxo-4-trifluoromethyl-1,2-dihydroquinoline-6-sulfonic acid2-methylbenzylamide]
0.28 | CC(C)CCNS(=O)(=O)c1ccc2[nH]c(=O)cc(C(F)(F)F)c2c1 [Example 121, 2-Oxo-4-trifluoromethyl-1,2-dihydroquinoline-6-sulfonic acid(3-methylbutyl)amide]
0.84 | CSc1ccccc1CNS(=O)(=O)c1ccc2[nH]c(=O)cc(C(F)(F)F)c2c1 [Example 143, 2-Oxo-4-trifluoromethyl-1,2-dihydroquinoline-6-sulfonic acid2-methylsulfanylbenzylamide]
> 10 | O=c1cc(C(F)(F)F)c2cc(S(=O)(=O)NCc3cccs3)ccc2[nH]1 [Example 118, 2-Oxo-4-trifluoromethyl-1,2-dihydroquinoline-6-sulfonic acid(thiophen-2-ylmethyl)amide]
3.13 | O=c1cc(C(F)(F)F)c2cc(S(=O)(=O)Nc3cccc(CO)c3)ccc2[nH]1 [Example 91, 2-Oxo-4-trifluoromethyl-1,2-dihydroquinoline-6-sulfonic acid(3-hydroxymethylphenyl)amide]
6.73 | O=c1cc(C(F)(F)F)c2cc(S(=O)(=O)NCCCO)ccc2[nH]1 [Example 157, 2-Oxo-4-trifluoromethyl-1,2-dihydroquinoline-6-sulfonic acid(3-hydroxypropyl)amide]
0.36 | CSc1cccc(NS(=O)(=O)c2ccc3[nH]c(=O)cc(C(F)(F)F)c3c2)c1 [Example 101, 2-Oxo-4-trifluoromethyl-1,2-dihydroquinoline-6-sulfonic acid(3-methylsulfanylphenyl)amide]
6.54 | O=c1cc(C(F)(F)F)c2cc(S(=O)(=O)NCc3cc(Cl)ccc3F)ccc2[nH]1 [Example 146, 2-Oxo-4-trifluoromethyl-1,2-dihydroquinoline-6-sulfonic acid5-chloro-2-fluorobenzylamide]
